Data reported in patent US20250090498A1, “TREATMENT OF PRIMARY CTLA-4 CHECKPOINT RELATED IMMUNODEFICIENCIES” (ADIENNE PHARMA & BIOTECH SA, priority 2023, published 2025).

Key:
[1] = preliminary pharmacokinetics in serum after Eudragit-formulated 3-IAld (90% 3-IAld/10% 13C8-labeled 3-IAld), mass spectrometry; assay type: in vivo
Description: Primary pharmacodynamics studies have been performed. The mode of action of 3-IAld occurs upon binding to AhR, both in vitro and in vivo. In vitro, 3-IAld induced luciferase activity in the H1L1.1c2 cell line containing a stably-transfected AhR-responsive firefly luciferase at the dose range […] (Zelante et al, 2013). […] Preliminary pharmacokinetics data have been obtained by administration of Eudragit-formulated 3-IAld in the composition 90% 3-IAld/10% 13C8-labeled 3-IAld and targeted/untargeted analysis by mass spectrometry in serum at different times (30 minutes (min), 1 hour (h), 2 h, 4.5h, 6 h, 24h). […] The presence of indole-3-formic acid was also confirmed with labelled 3-IAld (FIG. 13E), showing a similar kinetics and a peak level of about 25 μM at 30 min.

[2] = target: T1, AhR (Homo sapiens, UniProt P35869); test: Cyp1A1 induction in HepG2 liver cancer cell line; assay type: cell-based; design: endogenous in cells; host or cells: HepG2, A549, Calu-3, CaCo-2; settings: for induction of the AhR activation marker Cyp1A1 (mRNA): between 1 and 100 μM
T1 sequence (P35869 11-848): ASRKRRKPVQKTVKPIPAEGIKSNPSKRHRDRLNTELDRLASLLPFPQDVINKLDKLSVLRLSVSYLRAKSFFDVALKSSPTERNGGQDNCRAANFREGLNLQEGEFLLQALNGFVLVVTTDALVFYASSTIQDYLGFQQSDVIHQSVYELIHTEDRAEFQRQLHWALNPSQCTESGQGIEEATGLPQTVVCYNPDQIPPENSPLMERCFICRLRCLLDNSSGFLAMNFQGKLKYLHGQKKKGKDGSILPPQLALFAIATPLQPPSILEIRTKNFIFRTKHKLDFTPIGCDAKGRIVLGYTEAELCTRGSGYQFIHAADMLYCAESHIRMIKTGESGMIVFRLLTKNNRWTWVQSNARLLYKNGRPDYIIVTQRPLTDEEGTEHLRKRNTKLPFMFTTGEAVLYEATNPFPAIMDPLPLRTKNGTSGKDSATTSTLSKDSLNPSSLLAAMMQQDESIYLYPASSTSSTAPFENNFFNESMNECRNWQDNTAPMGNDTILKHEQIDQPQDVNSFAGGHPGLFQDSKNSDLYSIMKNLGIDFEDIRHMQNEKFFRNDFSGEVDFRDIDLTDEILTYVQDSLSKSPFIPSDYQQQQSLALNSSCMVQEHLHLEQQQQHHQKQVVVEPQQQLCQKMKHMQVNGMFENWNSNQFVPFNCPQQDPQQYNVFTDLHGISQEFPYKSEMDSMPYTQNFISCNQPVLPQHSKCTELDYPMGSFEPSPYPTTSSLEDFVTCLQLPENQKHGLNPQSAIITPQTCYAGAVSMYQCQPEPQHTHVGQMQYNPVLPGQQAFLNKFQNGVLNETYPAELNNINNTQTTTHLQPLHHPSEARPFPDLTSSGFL
Description: FIG. 14 graphically represents Cypla1 mRNA fold increase with the addition of 3-IAld or Ox-3-IAld.

[3] = single-dose pharmacokinetic study in healthy C57BL/6 mice, tissues and serum by mass spectrometry

Q: Which “serum level of methylated forms of indole-3-formic acid at 1 hour” value ([1]; 1 hour after 3-IAld) does the source give for `Cn1c(C(=O)O)cc2ccccc21` [1-Methylindole-2-carboxylic acid] here?
A: The value was “reduced levels”.

Q: And the “peak serum level of methylated forms of indole-3-formic acid” value ([1]; at 30 minutes after 3-IAld)?
A: The value was “about 150 nM”.

Q: Which “serum level of methylated forms of indole-3-formic acid at 1 hour” value ([1]; in vivo) does the source give for `COC(=O)c1c[nH]c2ccccc12` [Methyl indole-3-carboxylate] here?
A: The value was “reduced levels”.

Q: Which “pharmacological activity in vitro” value [2] does the source give for `O=C(O)c1c[nH]c2ccccc12` [indole-3-formic acid] here?
A: The value was “pharmacologically active”.

Q: What about the “induction of the AhR activation marker Cyp1A1 (mRNA)” value [2] of the same compound?
A: The value was “induce the AhR activation marker Cyp1A1 in a dose-dependent manner”.

Q: What about the “induction of the AhR activation marker Cyp1A1 (mRNA)” value ([2]; listed as Ox-3-IAld) of the same compound?
A: The value was “induction of the AhR activation marker Cyp1A1 in a dose-dependent manner”.

Q: And the “concentrations in all organs” value ([3]; after enteric 1ME3CA 18 mg/Kg)?
A: The value was “basal”.

Q: And the “clearance of metabolites from the organs” value ([3]; after oral 3-IAld 18 mg/Kg)?
A: The value was “rapid clearance”.

Q: And the “presence as metabolite of 3-IAld in serum and other tissues” value ([3]; after oral 3-IAld 18 mg/Kg)?
A: Its value is “main metabolite”.
